Our source for the inhibition values is US11987563B1, “3-cyano 4,5-diphenyl furan-2-carboxamides as antitubercular agents” (KING FAISAL UNIVERSITY, priority 2023, dated 2024).

Structures are written as SMILES.

The subject of one test is M. smegmatis. Kind of test: Microplate Alamar Blue Assay (MABA) against M. smegmatis. Type of test: cell-based, Mycobacterium smegmatis. The conditions noted are these: Mycolicibacterium smegmatis; read-out: M. smegmatis (% of inhibition) 50 μg/mL. In general terms: Resazurin is reduced to fluorescent resorufin, in cell work by metabolically active cells.
A further test concerns M. tuberculosis H37Rv. Kind of test: Microplate Alamar Blue Assay (MABA) against M. tuberculosis H37Rv. Type of test: cell-based. The conditions noted are these: Mycobacterium tuberculosis, read-out: M. tuberculosis H37Rv (% of inhibition) 50 μg/mL.

As for `CC(=O)Nc1oc(-c2ccccc2)c(-c2ccccc2)c1C#N` [Compound 2a, N-(3-Cyano-4,5-diphenylfuran-2-yl)acetamide], the inhibition at 50 µg/mL in the test on M. smegmatis amounted to 38%; in the test on M. tuberculosis H37Rv it was 27%.

Regarding `N#Cc1c(N)oc(-c2ccccc2)c1-c1ccccc1` [Compound 1, 2-Amino-4,5-diphenylfuran-3-carbonitrile], the inhibition at 50 µg/mL in the test on M. smegmatis is 32%; in the test with M. tuberculosis H37Rv it was 6%.

For `Cc1ccc(S(=O)(=O)Nc2oc(-c3ccccc3)c(-c3ccccc3)c2C#N)cc1` [Compound 2d, N-(3-Cyano-4,5-diphenylfuran-2-yl)-4-methylbenzenesulfonamide], the inhibition at 50 µg/mL with M. smegmatis turned out to be 37%; with M. tuberculosis H37Rv, 9%.

For `N#Cc1c(NC(=O)c2ccccc2)oc(-c2ccccc2)c1-c1ccccc1` [Compound 2b, N-(3-Cyano-4,5-diphenylfuran-2-yl)benzamide], the inhibition at 50 µg/mL is 13% in the test on M. smegmatis and 6% in the test on M. tuberculosis H37Rv.

As to `N#Cc1c(NC(=O)c2ccc(Cl)cc2)oc(-c2ccccc2)c1-c1ccccc1` [Compound 2c, 4-Chloro-N-(3-cyano-4,5-diphenylfuran-2-yl)benzamide], the inhibition at 50 µg/mL in the test on M. smegmatis was found to be 25%; in the test on M. tuberculosis H37Rv it was 19%.
